{"source": "patent EP2158208B1", "about": "“PROCESS FOR PREPARING AN A2A-ADENOSINE RECEPTOR AGONIST AND ITS POLYMORPHS” (Gilead Sciences, Inc., priority 2007, dated 2008)", "key": {"A2A-adenosine receptor": {"target": "A2A-adenosine receptor (Homo sapiens, UniProt P29274)", "sequence (P29274 whole entry)": "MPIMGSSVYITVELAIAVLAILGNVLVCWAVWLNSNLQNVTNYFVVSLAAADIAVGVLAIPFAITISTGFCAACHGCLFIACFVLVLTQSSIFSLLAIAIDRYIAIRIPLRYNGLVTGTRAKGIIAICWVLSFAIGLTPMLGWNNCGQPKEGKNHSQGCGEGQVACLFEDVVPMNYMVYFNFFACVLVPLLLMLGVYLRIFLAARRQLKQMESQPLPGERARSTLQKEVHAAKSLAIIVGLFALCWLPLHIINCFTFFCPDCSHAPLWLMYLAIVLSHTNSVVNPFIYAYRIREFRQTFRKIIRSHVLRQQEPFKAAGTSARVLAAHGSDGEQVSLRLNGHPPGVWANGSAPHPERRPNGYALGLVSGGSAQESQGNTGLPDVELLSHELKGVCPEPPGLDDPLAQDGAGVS", "conditions": "disclosed in U.S. Patent No. 6,403,567; cited from earlier work"}, "[1]": {"conditions": "in humans; cited from earlier work"}, "[2]": {"assay": "stability of polymorphs under relative humidity stress / atmospheric moisture", "assay_type": "physicochemical", "conditions": "for stability under relative humidity stress conditions: up to melting point, monohydrate", "method": "Moisture sorption/desorption data were collected on a VTI SGA-100 Vapor Sorption Analyzer. Sorption and desorption data were collected over a range of 5% to 95% relative humidity […] at 10% RH intervals under a nitrogen purge. Sodium chloride (NaCl) and polyvinylpyrrolidone (PVP) were used as the calibration standards. Equilibrium criteria used for analysis were less than 0.0100% weight change in 5 minutes, with a maximum equilibration time of 180 minutes if the weight criterion was not met. The plotted data have not been corrected for the initial moisture content."}, "[3]": {"assay": "stability of polymorphs with temperature (thermal analyses)", "assay_type": "physicochemical", "conditions": "for relative stability among the polymorphs: at ambient temperatures, monohydrate", "method": "Thermogravimetric (TG) analyses were carried out on a TA Instruments 2050 or 2950 thermogravimetric analyzer. The calibration standards were nickel and Alumel™. Samples were placed in an aluminum sample pan, inserted into the TG furnace, and accurately weighed. The samples were heated in nitrogen at a rate of 10°C/min to either 300 or 350° C. Unless stated otherwise, samples weights were equilibrated at 25°C in the TGA furnace prior to analysis.\nDifferential scanning calorimetry (DSC) analyses were carried out on a TA Instruments differential scanning calorimeter 2920. Accurately weighed samples were placed in either crimped pans or hermetically sealed pans that contained a pinhole to allow for pressure release. Each sample was heated under nitrogen at a rate of 10°C/min to either 300 or 350°C. Indium metal was used as the calibration standard. Temperatures were reported at the transition maxima."}}, "data": [{"smiles": "CNC(=O)c1cnn(-c2nc(N)c3ncn([C@@H]4O[C@H](CO)[C@@H](O)[C@H]4O)c3n2)c1", "note": "[(1-{9-[(4S,2R,3R,5R)-3,4-dihydroxy-5-(hydroxymethyl)oxolan-2-yl]-6-aminopurin-2-yl}pyrazol-4-yl)-N-methylcarboxamide]", "values": [{"measurement": "selectivity as A2A-adenosine receptor agonist", "setting": "A2A-adenosine receptor", "value": "highly selective"}]}, {"smiles": "Nc1ncnc2c1ncn2[C@@H]1O[C@H](CO)[C@@H](O)[C@H]1O", "note": "[Adenosine]", "values": [{"measurement": "half life", "setting": "[1]", "value": "less than 10 seconds"}]}, {"smiles": "CNC(=O)c1cnn(-c2nc(N)c3ncn([C@@H]4O[C@H](CO)[C@@H](O)[C@H]4O)c3n2)c1", "note": "[Amorphous Material, (1-{9-[(4S,2R,3R,5R)-3,4-dihydroxy-5-(hydroxymethyl)oxolan-2-yl]-6-aminopurin-2-yl}pyrazol-4-yl)-N-methylcarboxamide]", "values": [{"measurement": "stability in the presence of atmospheric moisture", "setting": "[2]; atmospheric moisture", "value": "unstable in the presence of atmospheric moisture"}]}, {"smiles": "CNC(=O)c1cnn(-c2nc(N)c3ncn([C@@H]4O[C@H](CO)[C@@H](O)[C@H]4O)c3n2)c1.O", "note": "[Form A, (1-{9-[(4S,2R,3R,5R)-3,4-dihydroxy-5-(hydroxymethyl)oxolan-2-yl]-6-aminopurin-2-yl}pyrazol-4-yl)-N-methylcarboxamide monohydrate]", "values": [{"measurement": "stability under relative humidity stress conditions", "setting": "[2]; listed as monohydrate", "value": "stable under relative humidity stress conditions, up to its melting point"}, {"measurement": "stability under relative humidity stress conditions", "setting": "[2]", "value": "stable under relative humidity stress conditions up to its melting point"}, {"measurement": "relative stability among the polymorphs", "setting": "[3]; listed as monohydrate", "value": "most stable"}, {"measurement": "relative stability among the polymorphs", "setting": "[3]", "value": "most stable of the various polymorphs at ambient temperatures"}]}, {"smiles": "CNC(=O)c1cnn(-c2nc(N)c3ncn([C@@H]4O[C@H](CO)[C@@H](O)[C@H]4O)c3n2)c1", "note": "[Form C, (1-{9-[(4S,2R,3R,5R)-3,4-dihydroxy-5-(hydroxymethyl)oxolan-2-yl]-6-aminopurin-2-yl}pyrazol-4-yl)-N-methylcarboxamide]", "values": [{"measurement": "stability at elevated temperatures", "setting": "[3]; elevated temperatures", "value": "desolvates to an unstable form"}]}]}
